In assay [1] the test system is Staphylococcus epidermidis. In kind it is functional, ATCC 12228.
Description: Antimicrobial activity against Staphylococcus epidermidis ATCC 12228 assessed as ratio of maximum zone of inhibition to concentration required to reach half maximum zone of inhibition after 24 hrs
The test system of a further assay is Escherichia coli. In words: Antimicrobial activity against Escherichia coli K-12 C600 assessed as ratio of maximum zone of inhibition to concentration required to reach half maximum zone of inhibition after 24 hrs. It counts as functional.

As to `CCCC[N+](CCCC)(CCCC)CCCC.CS(=O)(=O)[O-]` [TETRABUTYLAMMONIUM METHANESULFONATE], the ZImax/KZI turned out to be 23.53 mm microL/micromol in assay [1] and 0.167 mm microL/micromol in the assay on Escherichia coli.
`CCCC[N+](CCCC)(CCCC)CCCC.O=P[O-]` [TETRABUTYLAMMONIUM PHOSPHENITE]: the ZImax/KZI in assay [1] is reported as 52.08 mm microL/micromol; with Escherichia coli, 0.408 mm microL/micromol.
As to `CCCC[N+](CCCC)(CCCC)CCCC.O=C([O-])c1ccccc1` [TETRABUTYLAMMONIUM BENZOATE], the ZImax/KZI is 39.81 mm microL/micromol in assay [1] and 0.333 mm microL/micromol in the assay on Escherichia coli.
As to `CCCC[N+](CCCC)(CCCC)CCCC.F[B-](F)(F)F` [TETRABUTYLAMMONIUM TETRAFLUOROBORATE], the ZImax/KZI is given as 25.71 mm microL/micromol in assay [1] and 0.499 mm microL/micromol in the assay on Escherichia coli.
Take `CCCC[N+](CCCC)(CCCC)CCCC.[I-]` [TETRABUTYLAMMONIUM IODIDE]: the ZImax/KZI was 140.85 mm microL/micromol in assay [1] and 0.381 mm microL/micromol in the assay with Escherichia coli.
On to `CCCC[N+](CCCC)(CCCC)CCCC.[F-]` [TETRABUTYLAMMONIUM FLUORIDE], for which the results for the ZImax/KZI (in assay [1]; in the assay on Escherichia coli) were 15.82 mm microL/micromol and 0.842 mm microL/micromol, respectively.
In the case of `CCCC[N+](CCCC)(CCCC)CCCC.[Br-]` [TETRABUTYLAMMONIUM BROMIDE], the ZImax/KZI was 16.69 mm microL/micromol in assay [1] and 0.516 mm microL/micromol in the assay on Escherichia coli.
In the case of `CC(=O)[O-].CCCC[N+](CCCC)(CCCC)CCCC` [TETRABUTYLAMMONIUM ACETATE], the ZImax/KZI in assay [1] amounted to 37.88 mm microL/micromol; in the assay with Escherichia coli, 4.2 mm microL/micromol.
For `CCCC[N+](CCCC)(CCCC)CCCC.[OH-]` [TETRABUTYLAMMONIUM HYDROXIDE], the ZImax/KZI is 27.17 mm microL/micromol in assay [1] and 4.06 mm microL/micromol in the assay on Escherichia coli.
Consider `CCCC[N+](CCCC)(CCCC)CCCC.O=S(=O)([O-])C(F)(F)F` [TETRABUTYLAMMONIUM TRIFLUOROMETHANESULFONATE], for which the ZImax/KZI is 64.94 mm microL/micromol in assay [1] and 0.067 mm microL/micromol in the assay with Escherichia coli.
On the same counts, the results for `CCCC[N+](CCCC)(CCCC)CCCC.[Cl-]` [TETRABUTYLAMMONIUM] are 23.58 mm microL/micromol and 0.382 mm microL/micromol.
Turning to `CCCC[N+](CCCC)(CCCC)CCCC.N#C[S-]` [TETRABUTYLAMMONIUM THIOCYANATE], the figures for the ZImax/KZI (in assay [1]; in the assay with Escherichia coli) were 11.59 mm microL/micromol and 6.28 mm microL/micromol, respectively.
Consider `CCCC[N+](CCCC)(CCCC)CCCC.[O-][Cl+3]([O-])([O-])[O-]` [TETRABUTYLAMMONIUM PERCHLORATE], for which the results for the ZImax/KZI (in assay [1]; with Escherichia coli) were 14.77 mm microL/micromol and 0 mm microL/micromol, respectively.
As for `CC(O)C(=O)[O-].CCCC[N+](CCCC)(CCCC)CCCC`, the ZImax/KZI in assay [1] turned out to be 103.09 mm microL/micromol; with Escherichia coli, 0 mm microL/micromol.
With `CCCC[N+](CCCC)(CCCC)CCCC.O=P([O-])(O)O` [TETRABUTYLAMMONIUM DIHYDROGENPHOSPHATE], the ZImax/KZI in assay [1] was found to be 23.58 mm microL/micromol; with Escherichia coli it was 0 mm microL/micromol.
With `CCCC[N+](CCCC)(CCCC)CCCC.O=S(=O)([O-])O` [TETRABUTYLAMMONIUM HYDROGENSULFATE], the ZImax/KZI in assay [1] is 84.03 mm microL/micromol; with Escherichia coli, 4.98 mm microL/micromol.
On the same counts, the results for `CCCC[N+](CCCC)(CCCC)CCCC.O=[N+]([O-])[O-]` [BIS(TETRABUTYLAMMONIUM)MONONITRATE] are 30.67 mm microL/micromol and 0.333 mm microL/micromol.
Take `CCCC[N+](CCCC)(CCCC)CCCC.Cc1ccc(S(=O)(=O)[O-])cc1`: the ZImax/KZI in assay [1] came out at 8.55 mm microL/micromol; in the assay on Escherichia coli, 0 mm microL/micromol.
With `Br.Br.CCCC[N+](CCCC)(CCCC)CCCC.[Br-]` [MONO(TETRABUTYLAMMONIUM)TRIBROMIDE], the ZImax/KZI in assay [1] is 48.08 mm microL/micromol; in the assay on Escherichia coli, 37.59 mm microL/micromol.
